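The compound was tested at five concentrations on cells cultured in 96-well plates, with a 48-hour exposure period. GI50 is the concentration that inhibits growth by half. TGI is the concentration that stops growth completely.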
How the values were obtained:
Assay in all cases: inhibition of tumour cell growth, NCI panel, 48 h
COLO 205 colon = tested on: COLO 205 colon
EKVX NSCLC = tested on: EKVX NSCLC
HOP-92 NSCLC = tested on: HOP-92 NSCLC
HS 578T breast = tested on: HS 578T breast
MALME-3M melanoma = tested on: MALME-3M melanoma
MDA-MB-231 breast = tested on: MDA-MB-231 breast
NCI-H226 lung = tested on: NCI-H226 lung
NCI-H522 lung = tested on: NCI-H522 lung
OVCAR-3 ovarian = tested on: OVCAR-3 ovarian
OVCAR-4 ovarian = tested on: OVCAR-4 ovarian
OVCAR-5 ovarian = tested on: OVCAR-5 ovarian
SF-295 CNS = tested on: SF-295 CNS
SK-MEL-2 melanoma = tested on: SK-MEL-2 melanoma
SK-MEL-28 melanoma = tested on: SK-MEL-28 melanoma
SK-OV-3 ovarian = tested on: SK-OV-3 ovarian
SNB-75 CNS = tested on: SNB-75 CNS
T-47D breast = tested on: T-47D breast
TK-10 renal = tested on: TK-10 renal
UACC-257 melanoma = tested on: UACC-257 melanoma
786-0 renal = tested on: 786-0 renal
A498 renal = tested on: A498 renal
A549 NSCLC = tested on: A549 NSCLC
ACHN renal = tested on: ACHN renal
BT-549 breast = tested on: BT-549 breast
CAKI-1 renal = tested on: CAKI-1 renal
CCRF-CEM leukemia = tested on: CCRF-CEM leukemia
DU-145 prostate = tested on: DU-145 prostate
HCC-2998 colon = tested on: HCC-2998 colon
HCT-116 colon = tested on: HCT-116 colon
HCT-15 colon = tested on: HCT-15 colon
HOP-62 NSCLC = tested on: HOP-62 NSCLC
HT29 colon = tested on: HT29 colon
IGROV1 ovarian = tested on: IGROV1 ovarian
K-562 leukemia = tested on: K-562 leukemia
KM12 colon = tested on: KM12 colon
LOX IMVI melanoma = tested on: LOX IMVI melanoma
M14 melanoma = tested on: M14 melanoma
MCF7 breast = tested on: MCF7 breast
MDA-MB-435 = tested on: MDA-MB-435
MOLT-4 leukemia = tested on: MOLT-4 leukemia
NCI-H23 lung = tested on: NCI-H23 lung
NCI-H460 lung = tested on: NCI-H460 lung
NCI/ADR-RES ovarian = tested on: NCI/ADR-RES ovarian
OVCAR-8 ovarian = tested on: OVCAR-8 ovarian
PC-3 prostate = tested on: PC-3 prostate
RPMI-8226 leukemia = tested on: RPMI-8226 leukemia
RXF 393 renal = tested on: RXF 393 renal
SF-268 CNS = tested on: SF-268 CNS
SF-539 CNS = tested on: SF-539 CNS
SK-MEL-5 melanoma = tested on: SK-MEL-5 melanoma
SN12C renal = tested on: SN12C renal
SNB-19 CNS = tested on: SNB-19 CNS
SW-620 colon = tested on: SW-620 colon
U251 CNS = tested on: U251 CNS
UACC-62 melanoma = tested on: UACC-62 melanoma
UO-31 renal = tested on: UO-31 renal
HL-60(TB) leukemia = tested on: HL-60(TB) leukemia
SR leukemia = tested on: SR leukemia

## COc1cc(/C=C/C(=O)c2ccc(O)c(OC)c2)ccc1O
COLO 205 colon
  TGI: 41.2 µM
EKVX NSCLC
  TGI: 41.6 µM
HOP-92 NSCLC
  TGI: 50.7 µM
HS 578T breast
  TGI: 60.3 µM
MALME-3M melanoma
  TGI: 51.4 µM
MDA-MB-231 breast
  TGI: 79.4 µM
NCI-H226 lung
  TGI: 46.3 µM
NCI-H522 lung
  TGI: 32.3 µM
OVCAR-3 ovarian
  TGI: 72 µM
OVCAR-4 ovarian
  TGI: 71.4 µM
OVCAR-5 ovarian
  TGI: 50.8 µM
SF-295 CNS
  TGI: 49 µM
SK-MEL-2 melanoma
  TGI: 42.6 µM
SK-MEL-28 melanoma
  TGI: 36.5 µM
SK-OV-3 ovarian
  TGI: 93.4 µM
SNB-75 CNS
  TGI: 77.5 µM
T-47D breast
  TGI: 58.7 µM
TK-10 renal
  TGI: 87.9 µM
UACC-257 melanoma
  TGI: 45.9 µM

## CC(=O)OC1COC(Oc2c(C)c3c4c(c2O)[C@@H](C)CC[C@@H]4[C@@H](C)C[C@H]3C=C(C)C)C(O)C1OC(C)=O (stereo not given in full)
786-0 renal
  GI50: 16.4 µM
  TGI: 31.8 µM
A498 renal
  GI50: 23.5 µM
  TGI: 45.7 µM
A549 NSCLC
  GI50: 16 µM
  TGI: 32.8 µM
ACHN renal
  GI50: 11 µM
  TGI: 22.9 µM
BT-549 breast
  GI50: 26.9 µM
  TGI: 69.7 µM
CAKI-1 renal
  GI50: 12.6 µM
  TGI: 26.3 µM
CCRF-CEM leukemia
  GI50: 12 µM
  TGI: 33.4 µM
COLO 205 colon
  GI50: 15.5 µM
  TGI: 57.4 µM
DU-145 prostate
  GI50: 16 µM
  TGI: 32.5 µM
EKVX NSCLC
  GI50: 22.6 µM
  TGI: 45.5 µM
HCC-2998 colon
  GI50: 2.3 µM
  TGI: 8.84 µM
HCT-116 colon
  GI50: 10.8 µM
  TGI: 23.4 µM
HCT-15 colon
  GI50: 5.76 µM
  TGI: 21.2 µM
HOP-62 NSCLC
  GI50: 20 µM
  TGI: 36.1 µM
HOP-92 NSCLC
  GI50: 16.3 µM
  TGI: 35.1 µM
HS 578T breast
  GI50: 46.8 µM
  TGI: > 100 µM
HT29 colon
  GI50: 25.6 µM
  TGI: 74.4 µM
IGROV1 ovarian
  GI50: 13.4 µM
  TGI: 28.8 µM
K-562 leukemia
  GI50: 12.5 µM
  TGI: 32.8 µM
KM12 colon
  GI50: 17.4 µM
  TGI: 36.4 µM
LOX IMVI melanoma
  GI50: 12 µM
  TGI: 25.7 µM
M14 melanoma
  GI50: 13.7 µM
  TGI: 27.8 µM
MALME-3M melanoma
  GI50: 15.2 µM
  TGI: 32.3 µM
MCF7 breast
  GI50: 17.5 µM
  TGI: > 100 µM
MDA-MB-231 breast
  GI50: 16.2 µM
  TGI: 31.9 µM
MDA-MB-435
  GI50: 10.8 µM
  TGI: 23.8 µM
MOLT-4 leukemia
  GI50: 6.64 µM
  TGI: 25.6 µM
NCI-H226 lung
  GI50: 14.2 µM
  TGI: 31.4 µM
NCI-H23 lung
  GI50: 7.49 µM
  TGI: 18.6 µM
NCI-H460 lung
  GI50: 8.36 µM
  TGI: > 100 µM
NCI-H522 lung
  GI50: 17.6 µM
  TGI: 35 µM
NCI/ADR-RES ovarian
  GI50: 9.2 µM
  TGI: 23.7 µM
OVCAR-3 ovarian
  GI50: 10.6 µM
  TGI: 23.3 µM
OVCAR-4 ovarian
  GI50: 21.6 µM
  TGI: 49.3 µM
OVCAR-5 ovarian
  GI50: 15.5 µM
  TGI: 30.1 µM
OVCAR-8 ovarian
  GI50: 16 µM
  TGI: 32.9 µM
PC-3 prostate
  GI50: 11.3 µM
  TGI: 25.2 µM
RPMI-8226 leukemia
  GI50: 9.02 µM
  TGI: 69.8 µM
RXF 393 renal
  GI50: 11.4 µM
  TGI: 28.5 µM
SF-268 CNS
  GI50: 27.6 µM
  TGI: > 100 µM
SF-295 CNS
  GI50: 17.1 µM
  TGI: 33.2 µM
SF-539 CNS
  GI50: 22.4 µM
  TGI: 42.6 µM
SK-MEL-2 melanoma
  GI50: 17.9 µM
  TGI: 42.1 µM
SK-MEL-28 melanoma
  GI50: 25.4 µM
  TGI: 56.2 µM
SK-MEL-5 melanoma
  GI50: 24.7 µM
  TGI: 52.7 µM
SK-OV-3 ovarian
  GI50: 20.8 µM
  TGI: 37.1 µM
SN12C renal
  GI50: 12.4 µM
  TGI: 25.8 µM
SNB-19 CNS
  GI50: 16 µM
  TGI: 40.1 µM
SW-620 colon
  GI50: 36.4 µM
  TGI: > 100 µM
T-47D breast
  GI50: 20.1 µM
  TGI: 56.4 µM
TK-10 renal
  GI50: 24.1 µM
  TGI: 46.3 µM
U251 CNS
  GI50: 10.4 µM
  TGI: 22.5 µM
UACC-257 melanoma
  GI50: 14.1 µM
  TGI: 28.4 µM
UACC-62 melanoma
  GI50: 15.1 µM
  TGI: 28.9 µM
UO-31 renal
  GI50: 17.3 µM
  TGI: 40.9 µM

## Nc1ccc([N+](=O)[O-])cc1N=C/C=C/c1ccccc1
786-0 renal
  GI50: 23.3 µM
  TGI: > 100 µM
A498 renal
  GI50: 15.1 µM
  TGI: 64.4 µM
A549 NSCLC
  GI50: 21.9 µM
  TGI: > 100 µM
ACHN renal
  GI50: 34.4 µM
  TGI: > 100 µM
BT-549 breast
  GI50: 12.5 µM
  TGI: > 100 µM
COLO 205 colon
  GI50: 23 µM
  TGI: > 100 µM
DU-145 prostate
  GI50: 13.9 µM
  TGI: 64.9 µM
EKVX NSCLC
  GI50: 19.1 µM
  TGI: > 100 µM
HCC-2998 colon
  GI50: 30.1 µM
  TGI: > 100 µM
HCT-116 colon
  GI50: 7.86 µM
  TGI: 25 µM
HCT-15 colon
  GI50: 13.5 µM
  TGI: > 100 µM
HL-60(TB) leukemia
  GI50: 2.64 µM
  TGI: > 100 µM
HOP-62 NSCLC
  GI50: 42.5 µM
  TGI: > 100 µM
HT29 colon
  GI50: 5.05 µM
  TGI: 67.1 µM
IGROV1 ovarian
  GI50: 7.48 µM
  TGI: 42.7 µM
K-562 leukemia
  GI50: 5.43 µM
  TGI: > 100 µM
KM12 colon
  GI50: 3.87 µM
  TGI: 51.2 µM
LOX IMVI melanoma
  GI50: 3.98 µM
  TGI: 80.7 µM
M14 melanoma
  GI50: 8.66 µM
  TGI: > 100 µM
MALME-3M melanoma
  GI50: 25.1 µM
  TGI: > 100 µM
MCF7 breast
  GI50: 6.61 µM
  TGI: > 100 µM
MDA-MB-231 breast
  GI50: 7.57 µM
  TGI: > 100 µM
MOLT-4 leukemia
  GI50: 3.89 µM
  TGI: > 100 µM
NCI-H226 lung
  GI50: 27.8 µM
  TGI: > 100 µM
NCI-H23 lung
  GI50: 18.4 µM
  TGI: > 100 µM
NCI-H460 lung
  GI50: 11.3 µM
  TGI: 41.9 µM
NCI-H522 lung
  GI50: 4.47 µM
  TGI: 59 µM
NCI/ADR-RES ovarian
  GI50: 7.84 µM
  TGI: > 100 µM
OVCAR-3 ovarian
  GI50: 4.95 µM
  TGI: 26.8 µM
OVCAR-4 ovarian
  GI50: 11.2 µM
  TGI: 90.2 µM
OVCAR-5 ovarian
  GI50: 81.2 µM
  TGI: > 100 µM
OVCAR-8 ovarian
  GI50: 23.5 µM
  TGI: > 100 µM
PC-3 prostate
  GI50: 7.67 µM
  TGI: > 100 µM
RPMI-8226 leukemia
  GI50: 5.05 µM
  TGI: > 100 µM
RXF 393 renal
  GI50: 22.7 µM
  TGI: > 100 µM
SF-268 CNS
  GI50: 5.91 µM
  TGI: 40.6 µM
SF-295 CNS
  GI50: 21.7 µM
  TGI: > 100 µM
SF-539 CNS
  GI50: 21.7 µM
  TGI: > 100 µM
SK-MEL-2 melanoma
  GI50: 28.6 µM
  TGI: > 100 µM
SK-MEL-28 melanoma
  GI50: 29.7 µM
  TGI: > 100 µM
SK-MEL-5 melanoma
  GI50: 10.7 µM
  TGI: 48.8 µM
SK-OV-3 ovarian
  GI50: 26.5 µM
  TGI: > 100 µM
SN12C renal
  GI50: 8.06 µM
  TGI: > 100 µM
SNB-19 CNS
  GI50: 31.5 µM
  TGI: > 100 µM
SNB-75 CNS
  GI50: 10.8 µM
  TGI: 96.6 µM
SR leukemia
  GI50: 3.48 µM
  TGI: > 100 µM
SW-620 colon
  GI50: 6.12 µM
  TGI: > 100 µM
T-47D breast
  GI50: 15.7 µM
  TGI: 77.7 µM
TK-10 renal
  GI50: 33.3 µM
  TGI: > 100 µM
U251 CNS
  GI50: 6.16 µM
  TGI: 77.5 µM
UACC-257 melanoma
  GI50: 47.7 µM
  TGI: > 100 µM
UACC-62 melanoma
  GI50: 11.9 µM
  TGI: > 100 µM
UO-31 renal
  GI50: 4.31 µM
  TGI: 71.4 µM

From PubChem BioAssay (NCI)
